Measured values: patent US20250304535A1, “KAT6 Inhibitors” (BeiGene Switzerland GmbH, priority 2024, published 2025)

Experiments:
[1] = target: Recombinant human KAT6A protein (497-780) (Homo sapiens (Human), UniProt Q92794); assay: KAT6A biochemical TR-FRET assay; details: histone H4 peptide 2000 nM, AcCoA 300 nM, enzyme 5 nM
Experimental: Enzymatic reactions of KAT6A and KAT6B were performed using Fluorescence Resonance Energy Transfer (TR-FRET) assay, which measures acetylation of a synthetic, biotinylated histone-H4 peptide by the KAT6A and KAT6B enzymes. Recombinant human KAT6A protein (497-780) were expressed in BL21 cell using an E. coli expression system. Recombinant human KAT6B protein (657-1069) was expressed in sf9 cell using a baculovirus expression system. […] Acetyl coenzyme A was purchased from Sigma-Aldrich (#A-2056).
Testing for the inhibition activities of various compounds disclosed herein was carried out at room temperature in assay buffer containing 100 mM Tris/HCl Ph7.8, 15 mM NaCl, 0.01% chicken egg white albumin, 1 mM DTT and 0.01% Tween-20. Compounds in DMSO were dispensed into wells of a black, 384-well plate (Corning 4514) using ECHO555 (Beckman). The final concentration ranges of the test compounds were 0.0625-1,000 nM, 0.625-10,000 nM, or 0.313-5,000 nM. Five μL of KAT6A or KAT6B enzyme solution were added to wells, and the plate was incubated for 1 hour at room temperature (rt). After incubation for 1 hour at rt, 5 μL H4 and AcCoA substrate solutions were added to the wells to initiate reaction, and the plate was incubated. After 2 hours reaction, 5 μL detection reagent were added to the wells, and the plate was incubated for 2 hours. After two hours incubation, detection reagent containing 5 nM Anti-histone H4 antibody (ABCAM #ab177790), 100 μM formic acid (sigma #06473-100ML), 0.1 test/μL streptavidin-XL665 (PerkinElmer #610SAXLG), 0.05 test/μL PAb anti-rabbit IgG-Eu (PerkinElmer μ61PARKLA) was added to the wells. TR-FRET was measured on a microplate reader (PHERAstar FSX, BMG labtech). […] In Table 6, I≤5 nM, 5 nM<II≤50 nM.

[2] = tested on: histone H3K23 acetylation in U-2 OS cells; assay: Histone H3 lysine 23 acetylation assay in U-2 OS cells (high content analysis); type: cell-based; details: Homo sapiens, U2OS, 24 hrs exposure, H3K23ac level
Experimental: Assay B: Histone H3 lysine 23 Acetylation Assay
Compounds were tested for their capacity to suppress the histone H3K23 acetylation in the following high content analysis assay.
The cell line U-2 OS (ATCC HTB-96) was seeded at a density of 2000 cells per well in black 384 well cell culture/imaging microplates in 45 μl McCoy's 5A medium with […]. After overnight incubation in 37° C., 5% CO2 incubator, cells were then treated with a 9-point dilution series of compounds and a blank control group with medium containing 0.1% DMSO.
Following a 24 hrs exposure to the compounds, the cells were fixed with 4% immunohistochemical fixative for 20 mins at room temperature, washed with DPBS with 2% fetal bovine serum, and permed with Perm Buffer III for 30 min on ice, washed with DPBS with 2% fetal bovine serum. Then the cells were blocked with Odyssey blocking buffer containing 0.1% Tween 20. 20 ul Anti-Histone H3 (acetyl K23) antibody (Abcam, ab177275) in odyssey blocking buffer containing 0.1% Tween20 was added and incubated overnight at 4° C. After incubation, the cells were washed for 3 times and a secondary antibody Anti-rabbit IgG (H+L), F(ab′)2 Fragment (Alexa Fluor® 647 Conjugate) (CST, 4414S) were added into cells for one hour. The cells were washed and 1 ug/ml DAPI (Thermo, 62248) were added for 10 min. Then cells were washed and read on the PerkinElmer Operetta CLS high content analysis system. The nuclei were identified by DAPI and H3K23ac level was calculated from the Alexa Fluor 647 intensity in the nuclei. Inhibition rate of H3K23ac was calculated as the mean intensity of cells per well relative to blank controls on the same plate.

[3] = target: Recombinant human KAT6B protein (657-1069) (Homo sapiens (Human), UniProt Q8WYB5); assay: KAT6B biochemical TR-FRET assay; details: histone H4 peptide 1000 nM, AcCoA 100 nM, enzyme 5 nM
Recombinant human KAT6B protein (657-1069), sequence (Q8WYB5 657-1069): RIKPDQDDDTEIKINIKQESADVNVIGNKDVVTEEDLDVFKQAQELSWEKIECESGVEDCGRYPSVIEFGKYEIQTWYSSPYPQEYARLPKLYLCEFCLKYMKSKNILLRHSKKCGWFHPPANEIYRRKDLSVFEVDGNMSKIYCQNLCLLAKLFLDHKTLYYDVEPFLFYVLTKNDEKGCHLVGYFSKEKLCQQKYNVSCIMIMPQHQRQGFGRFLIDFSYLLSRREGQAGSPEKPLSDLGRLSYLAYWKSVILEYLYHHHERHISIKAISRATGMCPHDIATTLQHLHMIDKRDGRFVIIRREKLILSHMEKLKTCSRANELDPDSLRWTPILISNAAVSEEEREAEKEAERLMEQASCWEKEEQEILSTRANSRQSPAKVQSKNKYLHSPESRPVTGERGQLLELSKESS
Experimental: Enzymatic reactions of KAT6A and KAT6B were performed using Fluorescence Resonance Energy Transfer (TR-FRET) assay, which measures acetylation of a synthetic, biotinylated histone-H4 peptide by the KAT6A and KAT6B enzymes. Recombinant human KAT6A protein (497-780) were expressed in BL21 cell using an E. coli expression system. Recombinant human KAT6B protein (657-1069) was expressed in sf9 cell using a baculovirus expression system. Histone H4 peptide (SEQ ID NO: 1—[…]-GGK-Biotin), which was used as substrate, was synthesized by GL Biochem, Shanghai, China. Acetyl coenzyme A was purchased from Sigma-Aldrich (#A-2056).
Testing for the inhibition activities of various compounds disclosed herein was carried out at room temperature in assay buffer containing 100 mM Tris/HCl Ph7.8, 15 mM NaCl, 0.01% chicken egg white albumin, 1 mM DTT and 0.01% Tween-20. Compounds in DMSO were dispensed into wells of a black, 384-well plate (Corning 4514) using ECHO555 (Beckman). The final concentration ranges of the test compounds were 0.0625-1,000 nM, 0.625-10,000 nM, or 0.313-5,000 nM. Five μL of KAT6A or KAT6B enzyme solution were added to wells, and the plate was incubated for 1 hour at room temperature (rt). After incubation for 1 hour at rt, 5 μL H4 and AcCoA substrate solutions were added to the wells to initiate reaction, and the plate was incubated. After 2 hours reaction, 5 μL detection reagent were added to the wells, and the plate was incubated for 2 hours. After two hours incubation, detection reagent containing 5 nM Anti-histone H4 antibody (ABCAM #ab177790), 100 μM formic acid (sigma #06473-100ML), 0.1 test/μL streptavidin-XL665 (PerkinElmer #610SAXLG), 0.05 test/μL PAb anti-rabbit IgG-Eu (PerkinElmer μ61PARKLA) was added to the wells. TR-FRET was measured on a microplate reader (PHERAstar FSX, BMG labtech). The IC50s were calculated based on inhibition of enzyme activity in the presence of increasing concentrations of test compounds, and the results are shown in Table 6. In Table 6, I≤5 nM, 5 nM<II≤50 nM.

Recombinant human KAT6A protein (497-780), sequence (Q92794 497-780): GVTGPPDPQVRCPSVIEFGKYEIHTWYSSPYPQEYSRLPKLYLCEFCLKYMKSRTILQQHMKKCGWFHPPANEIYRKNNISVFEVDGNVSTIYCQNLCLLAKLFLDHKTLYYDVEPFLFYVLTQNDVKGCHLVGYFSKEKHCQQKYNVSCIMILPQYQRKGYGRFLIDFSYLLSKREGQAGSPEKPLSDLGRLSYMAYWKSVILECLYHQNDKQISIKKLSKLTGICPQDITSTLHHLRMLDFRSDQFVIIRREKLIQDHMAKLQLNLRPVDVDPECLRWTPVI

SMILES	IC50 [1] [nM]	IC50 [2] [nM]	IC50 [3] [nM]
COc1ccc(C(C)(C)C)cc1S(=O)(=O)NC(=O)c1ccc(Cn2cccn2)c(Br)c1F [Example C11, 4-((1H-pyrazol-1-yl)methyl)-3-bromo-N-((5-(tert-butyl)-2-methoxyphenyl)sulfonyl)-2-fluorobenzamide]	≤ 5	≤ 10	≤ 5
COc1ccc2c(c1S(=O)(=O)NC(=O)c1ccc(Cn3cccn3)c(OC)n1)OCC21CCC1 [Example C60, 5-((1H-pyrazol-1-yl)methyl)-6-methoxy-N-((6-methoxy-2H-spiro[benzofuran-3,1′-cyclobutan]-7-yl)sulfonyl)picolinamide]	≤ 5	≤ 10	≤ 5
[2H]C([2H])([2H])Oc1nc(C(=O)NS(=O)(=O)c2nc(C(C)(C)C)ccc2OC)ccc1Cn1cccn1 [Example C63, 5-((1H-pyrazol-1-yl)methyl)-N-((6-(tert-butyl)-3-methoxypyridin-2-yl)sulfonyl)-6-(methoxy-d3)picolinamide]	≤ 5	≤ 10	≤ 5
C=Cc1cc(C(=O)NS(=O)(=O)c2c(OC)ccc3c2OC(C)(C)C3)ccc1Cn1cccn1 [Example C44, 4-((1H-pyrazol-1-yl)methyl)-N-((6-methoxy-2,2-dimethyl-2,3-dihydrobenzofuran-7-yl)sulfonyl)-3-vinylbenzamide]	≤ 5	≤ 10	≤ 5
COc1ccc(C23CC(C2)C3)nc1S(=O)(=O)NC(=O)c1ccc(Cn2cccn2)c(OC)n1 [Example C79, 5-((1H-pyrazol-1-yl)methyl)-N-((6-(bicyclo[1.1.1]pentan-1-yl)-3-methoxypyridin-2-yl)sulfonyl)-6-methoxypicolinamide]	≤ 5	≤ 10	≤ 5
COc1cc2c(cc1S(=O)(=O)NC(=O)c1ccc(Cn3cccn3)c(OC)n1)C(C)(C)CO2 [Example C61, 5-((1H-pyrazol-1-yl)methyl)-6-methoxy-N-((6-methoxy-3,3-dimethyl-2,3-dihydrobenzofuran-5-yl)sulfonyl)picolinamide]	≤ 5	≤ 10	≤ 5
COc1cnc(C(C)(C)C)cc1S(=O)(=O)NC(=O)c1ccc(Cn2cccn2)c(OC)n1 [Example C72, 5-((1H-pyrazol-1-yl)methyl)-N-((2-(tert-butyl)-5-methoxypyridin-4-yl)sulfonyl)-6-methoxy-picolinamide]	≤ 5	≤ 10	≤ 5
COc1ccc(C2(OC)CC2)cc1S(=O)(=O)NC(=O)c1ccc(Cn2cccn2)c(OC)n1 [Example C56, 5-((1H-pyrazol-1-yl)methyl)-6-methoxy-N-((2-methoxy-5-(1-methoxycyclopropyl)phenyl)sulfonyl)picolinamide]	≤ 5	≤ 10	≤ 5

The next lines start with the values.

IC50 [1] [nM]	IC50 [2] [nM]	IC50 [3] [nM]	SMILES
≤ 5	≤ 10	≤ 5	COc1ccc(C2(C)CCC2)cc1S(=O)(=O)NC(=O)c1ccc(Cn2cccn2)c(OC)n1 [Example C76, 5-((1H-pyrazol-1-yl)methyl)-6-methoxy-N-((2-methoxy-5-(1-methylcyclobutyl)phenyl)sulfonyl) picolinamide]
≤ 5	≤ 10	≤ 5	COc1ccc2c(c1S(=O)(=O)NC(=O)c1ccc(Cn3cccn3)c(C3CC3)n1)OCC2(C)C [Example C47, 5-((1H-pyrazol-1-yl)methyl)-6-cyclopropyl-N-((6-methoxy-3,3-dimethyl-2,3-dihydrobenzofuran-7-yl)sulfonyl)picolinamide]
≤ 5	≤ 10	≤ 5	COc1ccc2c(c1S(=O)(=O)NC(=O)c1ccc(Cn3cccn3)c(OC)n1)OC(C)(C)C2 [Example C42, 5-((1H-pyrazol-1-yl)methyl)-6-methoxy-N-((6-methoxy-2,2-dimethyl-2,3-dihydrobenzofuran-7-yl)sulfonyl)picolinamide]
≤ 5	≤ 10	≤ 5	COc1ccc(C(C)(C)C)nc1S(=O)(=O)NC(=O)c1ccc(Cn2cccn2)c(OC)n1 [Example C41, 5-((1H-pyrazol-1-yl)methyl)-N-((6-(tert-butyl)-3-methoxypyridin-2-yl)sulfonyl)-6-methoxypicolinamide]
≤ 5	≤ 10	≤ 5	CCOc1nc(C(=O)NS(=O)(=O)c2nc(C(C)(C)C)ccc2OC)ccc1Cn1cccn1 [Example C34, 5-((1H-pyrazol-1-yl)methyl)-N-((6-(tert-butyl)-3-methoxypyridin-2-yl)sulfonyl)-6-ethoxy-picolinamide]
≤ 5	≤ 10	≤ 5	COc1ccc(C(C)(C)C)cc1S(=O)(=O)NC(=O)c1ccc(Cn2cccn2)c(N(C)C)c1 [Example C13, 4-((1H-pyrazol-1-yl)methyl)-N-((5-(tert-butyl)-2-methoxyphenyl)sulfonyl)-3-(dimethylamino)benzamide]
≤ 5	≤ 10	≤ 5	COc1cc(C(=O)NS(=O)(=O)c2cc(C(C)(C)C)ccc2OC)ccc1Cn1cccn1 [Example C7, 4-((1H-pyrazol-1-yl)methyl)-N-((5-(tert-butyl)-2-methoxyphenyl)sulfonyl)-3-methoxybenzamide]
≤ 5	≤ 10	≤ 5	CCc1nc(C(=O)NS(=O)(=O)c2c(OC)ccc3c2OCC3(C)C)ccc1Cn1cccn1 [Example C53, 5-((1H-pyrazol-1-yl)methyl)-6-ethyl-N-((6-methoxy-3,3-dimethyl-2,3-dihydrobenzofuran-7-yl)sulfonyl)picolinamide]
≤ 5	≤ 10	≤ 5	C#Cc1cc(C(=O)NS(=O)(=O)c2cc(C(C)(C)C)ccc2OC)ccc1Cn1cccn1 [Example C15, 4-((1H-pyrazol-1-yl)methyl)-N-((5-(tert-butyl)-2-methoxyphenyl)sulfonyl)-3-ethynylbenzamide]
